US6825350B2, “Sulfonamide and sulfamide substituted imidazoquinolines and methods for the treatment of periodontal disease using these and other immune response modifiers” (3M Innovative Properties Company, priority 1999, dated 2004)
Structures can show the parent of a compound that is named as a salt. Each block holds one compound with its values, some of them ahead of it.

What was measured:
interferon (α) = assay: Cytokine induction in human cells: interferon (α) by ELISA; type: cell-based; details: Homo sapiens, PBMC, human PBMCs, 18 to 24 hours incubation, ELISA of culture supernatant; read-out: Lowest Effective Concentration (μM) Interferon
[1] = test system: tumor necrosis factor (α); assay: Cytokine induction in human cells: tumor necrosis factor (α) by ELISA; type: cell-based; details: Homo sapiens, PBMC, human PBMCs, 18 to 24 hours incubation, ELISA of culture supernatant; read-out: Lowest Effective Concentration (μM) Tumor Necrosis Factor

- melting point: 78.1 to 79.5 °C
Structure (SMILES): COc1ccc(Cc2nc3c(N)nc4ccccc4c3n2CCCCNS(C)(=O)=O)cc1 [Example 12, N-[4-(4-Amino-2-(4-methoxybenzyl)-1H-imidazo[4,5-c]quinolin-1-yl]butyl]methanesulfonamide]

- melting point: 176 to 178.2 °C
Structure (SMILES): CCCCc1nc2c(N)nc3ccccc3c2n1CCCCNS(=O)(=O)c1cccc([N+](=O)[O-])c1 (as salt: hydrochloride) [Example 7, N^1-[4-(4-Amino-2-butyl-1H-imidazo[4,5-c]quinolin-1-yl)butyl]-3-nitro-1-benzenesulfonamide Hydrochloride]

- melting point: 214 to 216 °C
Structure (SMILES): Nc1nc2ccccc2c2c1nc(-c1ccccc1)n2CCCCNS(=O)(=O)c1ccc(F)cc1 [Example 15, N-[4-(4-Amino-2-phenyl-1H-imidazo[4,5-c]quinolin-1-yl)butyl]-4-fluoro-1-benzenesulfonamide]

- melting point: 234 to 235 °C
Structure (SMILES): CS(=O)(=O)NCCCCn1c(-c2ccccc2)nc2c(N)nc3ccccc3c21 [Example 16, N-[4-(4-Amino-2-phenyl-1H-imidazo[4,5-c]quinolin-1-yl)butyl]methanesulfonamide]

Structure (SMILES): COCCc1nc2c(N)nc3ccccc3c2n1CCCCN(C)S(=O)(=O)c1c(C)noc1C [Example 215, N-[4-(4-Amino-2-(2-methoxyethyl)-1H-imidazo[4,5-c]quinolin-1-yl)butyl]-N-methyl-3,5-dimethylisooxazolo-4-sulfonamide Trifluoroacetate]
- minimal effective concentration (interferon (α)): 0.01 µM
- minimal effective concentration [1]: 1 µM

Structure (SMILES): COCCc1nc2c(N)nc3ccccc3c2n1CCCCNS(=O)(=O)N(C)C [Example 218]
- minimal effective concentration (interferon (α)): 0.0001 µM
- minimal effective concentration [1]: 1 µM

Structure (SMILES): Nc1nc2c(c3c1ncn3CCCCNS(=O)(=O)c1ccc(Cl)cc1)CCCC2 [Example 59]
- minimal effective concentration (interferon (α)): 3.33 µM
- minimal effective concentration [1]: > 30 µM

Structure (SMILES): COc1ccc(Br)cc1S(=O)(=O)NCCCCn1cnc2c(N)nc3c(c21)CCCC3 [Example 66]
- minimal effective concentration (interferon (α)): > 30 µM
- minimal effective concentration [1]: 30 µM

Structure (SMILES): CCCCc1nc2c(N)nc3ccccc3c2n1CCCCNS(=O)(=O)CCCC [Example 74]
- minimal effective concentration (interferon (α)): 0.001 µM
- minimal effective concentration [1]: 0.01 µM

Structure (SMILES): CCCCc1nc2c(N)nc3ccccc3c2n1CCCCNS(=O)(=O)c1ccc(C)cc1 [Example 40]
- minimal effective concentration (interferon (α)): 0.0015 µM
- minimal effective concentration [1]: 3.33 µM

Structure (SMILES): CCCCc1nc2c(N)nc3ccccc3c2n1CCCCNS(=O)(=O)c1ccc(Cl)c([N+](=O)[O-])c1 [Example 86]
- minimal effective concentration (interferon (α)): 0.01 µM
- minimal effective concentration [1]: 1 µM

Structure (SMILES): Nc1nc2c(c3c1ncn3CCCCNS(=O)(=O)c1ccc(Cl)c(Cl)c1)CCCC2 [Example 60]
- minimal effective concentration (interferon (α)): > 30 µM
- minimal effective concentration [1]: > 30 µM

Structure (SMILES): CCCCCCCCS(=O)(=O)NCCn1c(CCCC)nc2c(N)nc3ccccc3c21 [Example 18]
- minimal effective concentration (interferon (α)): 3.33 µM
- minimal effective concentration [1]: > 30 µM

Structure (SMILES): CCCCc1nc2c(N)nc3ccccc3c2n1CCCCNS(=O)(=O)c1ccc(C(C)(C)C)cc1 [Example 47]
- minimal effective concentration (interferon (α)): 0.37 µM
- minimal effective concentration [1]: > 30 µM

Structure (SMILES): CCCCc1nc2c(N)nc3ccccc3c2n1CCCCNS(=O)(=O)c1ccccc1Br [Example 78]
- minimal effective concentration (interferon (α)): 0.001 µM
- minimal effective concentration [1]: 0.1 µM

Structure (SMILES): COCCc1nc2c(N)nc3ccccc3c2n1CCCCNS(=O)(=O)c1ccc(C#N)cc1 [Example 160]
- minimal effective concentration (interferon (α)): 0.001 µM
- minimal effective concentration [1]: 1 µM

Structure (SMILES): CCCCS(=O)(=O)NCCCCn1c(CCOC)nc2c(N)nc3ccccc3c21 [Example 117]
- minimal effective concentration (interferon (α)): 0.0001 µM
- minimal effective concentration [1]: 1 µM

Structure (SMILES): COCCc1nc2c(N)nc3ccccc3c2n1CCCCNS(=O)(=O)c1ccc(S(C)(=O)=O)cc1 [Example 161]
- minimal effective concentration (interferon (α)): 0.01 µM
- minimal effective concentration [1]: 10 µM

Structure (SMILES): Cc1cc(C)c(S(=O)(=O)NCCCCn2cnc3c(N)nc4c(c32)CCCC4)c(C)c1 [Example 63]
- minimal effective concentration (interferon (α)): > 30 µM
- minimal effective concentration [1]: > 30 µM

Structure (SMILES): CCCCc1nc2c(N)nc3ccccc3c2n1CCCCNS(=O)(=O)c1ccc(Cl)cc1Cl [Example 92]
- minimal effective concentration (interferon (α)): 0.1 µM
- minimal effective concentration [1]: 10 µM

Structure (SMILES): CCCCc1nc2c(N)nc3ccccc3c2n1CCCCNS(=O)(=O)c1ccc(Cl)c(Cl)c1 [Example 48]
- minimal effective concentration (interferon (α)): 0.37 µM
- minimal effective concentration [1]: 10 µM

Structure (SMILES): COCCc1nc2c(N)nc3ccccc3c2n1CCCCNS(=O)(=O)c1ccc(C)cc1 [Example 159]
- minimal effective concentration (interferon (α)): 0.0001 µM
- minimal effective concentration [1]: 0.1 µM

Structure (SMILES): CCCCc1nc2c(N)nc3c(c2n1CCCCNS(=O)(=O)c1cccs1)CCCC3 [Example 204]
- minimal effective concentration (interferon (α)): 0.0001 µM
- minimal effective concentration [1]: 1 µM

Structure (SMILES): CCCCc1nc2c(N)nc3ccccc3c2n1CCCCNS(=O)(=O)c1cccc2cccnc12 [Example 43]
- minimal effective concentration (interferon (α)): 0.04 µM
- minimal effective concentration [1]: > 30 µM

Structure (SMILES): CCCCc1nc2c(N)nc3ccccc3c2n1CCCCNS(=O)(=O)c1c(C(C)C)cc(C(C)C)cc1C(C)C [Example 76]
- minimal effective concentration (interferon (α)): > 10 µM
- minimal effective concentration [1]: > 10 µM

Structure (SMILES): CCCCc1nc2c(N)nc3ccccc3c2n1CCNS(=O)(=O)Cc1ccccc1 [Example 28]
- minimal effective concentration (interferon (α)): 1.11 µM
- minimal effective concentration [1]: 30 µM

Structure (SMILES): CCCCc1nc2c(N)nc3ccccc3c2n1CCNS(=O)(=O)c1cccc2ccccc12 [Example 31]
- minimal effective concentration (interferon (α)): 1.11 µM
- minimal effective concentration [1]: > 30 µM

Structure (SMILES): Nc1nc2c(c3c1ncn3CCCCNS(=O)(=O)c1cccc3cccnc13)CCCC2 [Example 69]
- minimal effective concentration (interferon (α)): 10 µM
- minimal effective concentration [1]: > 30 µM

Structure (SMILES): CCCCc1nc2c(N)nc3c(c2n1CCCCNS(C)(=O)=O)CCCC3 [Example 202]
- minimal effective concentration (interferon (α)): 0.0001 µM
- minimal effective concentration [1]: 1 µM

Structure (SMILES): CCCCc1nc2c(N)nc3ccccc3c2n1CCCCNS(=O)(=O)c1c(C)cc(C)cc1C [Example 45]
- minimal effective concentration (interferon (α)): 0.37 µM
- minimal effective concentration [1]: > 30 µM

Structure (SMILES): CCCCc1nc2c(N)nc3ccccc3c2n1CCNS(=O)(=O)c1c(C)cc(C)cc1C [Example 26]
- minimal effective concentration (interferon (α)): 10 µM
- minimal effective concentration [1]: > 30 µM

Structure (SMILES): Nc1nc2c(c3c1ncn3CCCCNS(=O)(=O)/C=C/c1ccccc1)CCCC2 [Example 68]
- minimal effective concentration (interferon (α)): 10 µM
- minimal effective concentration [1]: > 30 µM

Structure (SMILES): COCCc1nc2c(N)nc3ccccc3c2n1CCCCNS(=O)(=O)c1c(C)noc1C [Example 123]
- minimal effective concentration (interferon (α)): 0.0001 µM
- minimal effective concentration [1]: 10 µM

Structure (SMILES): CCCCc1nc2c(N)nc3ccccc3c2n1CCCCNS(=O)(=O)c1cccc(F)c1 [Example 95]
- minimal effective concentration (interferon (α)): 0.001 µM
- minimal effective concentration [1]: 1 µM

Structure (SMILES): CN(C)c1cccc2c(S(=O)(=O)NCCCCn3cnc4c(N)nc5c(c43)CCCC5)cccc12 [Example 71]
- minimal effective concentration (interferon (α)): > 30 µM
- minimal effective concentration [1]: 30 µM

Structure (SMILES): CCCCc1nc2c(N)nc3ccccc3c2n1CCCCNS(=O)(=O)c1ccc(OC)c(OC)c1 [Example 81]
- minimal effective concentration (interferon (α)): 0.001 µM
- minimal effective concentration [1]: 1 µM

Structure (SMILES): CCCCc1nc2c(N)nc3ccccc3c2n1CCNS(=O)(=O)c1cccs1 [Example 19]
- minimal effective concentration (interferon (α)): 0.12 µM
- minimal effective concentration [1]: 3.33 µM

Structure (SMILES): COCCc1nc2c(N)nc3ccccc3c2n1CCCCNS(=O)(=O)c1ccccc1F [Example 120]
- minimal effective concentration (interferon (α)): 0.0001 µM
- minimal effective concentration [1]: 1 µM

Structure (SMILES): CCCCc1nc2c(N)nc3ccccc3c2n1CCCCNS(=O)(=O)/C=C/c1ccccc1 [Example 50]
- minimal effective concentration (interferon (α)): 0.12 µM
- minimal effective concentration [1]: > 30 µM
